Source: ChEMBL document CHEMBL4414666, “Structure-Activity Relationships of Pentacyclic Triterpenoids as Inhibitors of Cyclooxygenase and Lipoxygenase Enzymes” (J Nat Prod, 2019)

What was measured:
[1] = target: T1, Polyunsaturated fatty acid 5-lipoxygenase (Homo sapiens, UniProt P09917); assay: Inhibition of human recombinant 5-LOX expressed in insect cells assessed as decrease in production of 5-HPETE and 5-HETE using arachidonic acid as substrate preincubated for 5 mins followed by substrate addition measured after 20 mins in dark by ferric ion oxidation-xylenol orange method
T1 sequence (P09917 whole entry): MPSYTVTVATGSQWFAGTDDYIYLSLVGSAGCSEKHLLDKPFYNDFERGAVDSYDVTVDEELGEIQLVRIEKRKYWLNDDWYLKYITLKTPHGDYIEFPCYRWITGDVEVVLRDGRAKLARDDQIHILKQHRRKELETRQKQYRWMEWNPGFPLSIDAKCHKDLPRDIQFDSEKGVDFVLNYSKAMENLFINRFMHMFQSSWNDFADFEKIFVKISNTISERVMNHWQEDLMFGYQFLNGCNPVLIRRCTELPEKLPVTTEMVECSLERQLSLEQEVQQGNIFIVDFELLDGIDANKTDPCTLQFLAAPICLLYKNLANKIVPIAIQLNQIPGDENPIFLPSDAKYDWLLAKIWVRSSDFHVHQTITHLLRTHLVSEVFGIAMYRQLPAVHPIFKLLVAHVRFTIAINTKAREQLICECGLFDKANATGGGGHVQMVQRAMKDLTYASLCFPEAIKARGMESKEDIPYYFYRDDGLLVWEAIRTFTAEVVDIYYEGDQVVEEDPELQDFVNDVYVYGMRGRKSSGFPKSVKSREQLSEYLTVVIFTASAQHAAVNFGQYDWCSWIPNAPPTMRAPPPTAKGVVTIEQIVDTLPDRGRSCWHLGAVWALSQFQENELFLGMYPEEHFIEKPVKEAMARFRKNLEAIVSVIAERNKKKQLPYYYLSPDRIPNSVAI

[2] = target: T2, Polyunsaturated fatty acid 5-lipoxygenase (Homo sapiens) (UniProt P09917); assay: Inhibition of human recombinant 5-LOX expressed in insect cells assessed residual activity using arachidonic acid at 42 uM as substrate preincubated for 5 mins followed by substrate addition measured after 20 mins in dark by ferric ion oxidation-xylenol orange method relative to control
T2 sequence (whole entry): T1 sequence (P09917 whole entry)

[3] = target: T3, Polyunsaturated fatty acid lipoxygenase ALOX15B (Homo sapiens, UniProt O15296); assay: (§1) Inhibition of human recombinant N-terminal His-tagged 15-LOX2 expressed in Escherichia coli using arachidonic acid as substrate preincubated for 5 mins followed by substrate addition measured after 20 mins in dark by ferric ion oxidation-xylenol orange assay
T3 sequence (O15296 whole entry): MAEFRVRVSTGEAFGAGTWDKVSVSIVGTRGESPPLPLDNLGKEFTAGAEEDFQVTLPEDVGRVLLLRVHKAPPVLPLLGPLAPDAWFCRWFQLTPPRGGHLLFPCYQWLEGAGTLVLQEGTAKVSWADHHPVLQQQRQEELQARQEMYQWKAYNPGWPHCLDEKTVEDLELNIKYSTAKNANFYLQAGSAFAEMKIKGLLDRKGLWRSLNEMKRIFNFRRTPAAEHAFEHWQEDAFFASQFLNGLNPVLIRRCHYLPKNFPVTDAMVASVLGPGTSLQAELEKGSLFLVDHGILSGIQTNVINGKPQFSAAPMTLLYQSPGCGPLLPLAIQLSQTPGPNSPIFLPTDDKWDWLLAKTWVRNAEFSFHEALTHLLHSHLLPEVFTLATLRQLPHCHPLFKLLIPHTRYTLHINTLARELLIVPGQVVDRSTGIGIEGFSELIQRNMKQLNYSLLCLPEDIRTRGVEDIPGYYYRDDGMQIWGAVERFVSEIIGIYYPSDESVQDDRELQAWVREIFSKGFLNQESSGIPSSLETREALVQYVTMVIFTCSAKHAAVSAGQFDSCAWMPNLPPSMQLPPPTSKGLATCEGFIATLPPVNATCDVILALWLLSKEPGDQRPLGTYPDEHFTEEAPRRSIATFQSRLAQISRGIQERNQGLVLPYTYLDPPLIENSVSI

[4] = target: T4, Polyunsaturated fatty acid lipoxygenase ALOX15B (Homo sapiens) (UniProt O15296); assay: as §1, with “coli assessed as residual activity at 42 uM” for “coli”, “assay relative to control” for “assay”
T4 sequence (whole entry): T3 sequence (O15296 whole entry)

[5] = target: T5, Prostaglandin G/H synthase 2 (Homo sapiens, UniProt P35354); assay: biochemical; type: cell-based, Sf21;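 also: recombinant enzyme produced in baculovirus-infected Sf21 cells, arachidonic acid substrate, PGE2 output quantified by LC-MS after 45 min, compounds preincubated 10 min beforehand, lower PGE2 means inhibition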
T5 sequence (P35354 whole entry): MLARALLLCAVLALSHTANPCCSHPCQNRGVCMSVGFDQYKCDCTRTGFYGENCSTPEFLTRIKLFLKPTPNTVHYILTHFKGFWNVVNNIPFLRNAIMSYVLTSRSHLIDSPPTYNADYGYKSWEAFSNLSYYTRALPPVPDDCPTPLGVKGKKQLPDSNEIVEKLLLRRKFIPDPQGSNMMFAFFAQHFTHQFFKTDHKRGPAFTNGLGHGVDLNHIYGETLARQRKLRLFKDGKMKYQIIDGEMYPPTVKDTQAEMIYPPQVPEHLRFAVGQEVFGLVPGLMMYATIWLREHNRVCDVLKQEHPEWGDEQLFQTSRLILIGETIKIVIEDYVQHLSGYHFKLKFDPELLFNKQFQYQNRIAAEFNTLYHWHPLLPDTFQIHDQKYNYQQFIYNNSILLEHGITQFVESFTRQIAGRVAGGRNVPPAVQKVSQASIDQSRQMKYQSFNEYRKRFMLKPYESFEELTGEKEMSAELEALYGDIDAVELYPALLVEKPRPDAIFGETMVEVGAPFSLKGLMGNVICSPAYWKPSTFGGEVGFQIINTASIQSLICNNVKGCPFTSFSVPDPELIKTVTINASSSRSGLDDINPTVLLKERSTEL
Description: Inhibition of human recombinant COX2 expressed in baculovirus infected sf21 cells assessed as decrease in PGE2 formation using arachidonic acid as substrate preincubated for 10 mins followed by substrate addition measured after 45 mins by LC-MS analysis

[6] = target: T6, Prostaglandin G/H synthase 1 (Ovis aries, UniProt P05979);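 also: recombinant ovine COX1 enzyme, PGE2 formed from arachidonic acid quantified by LC-MS, 10 min inhibitor preincubation then 45 min reaction, inhibition seen as reduced PGE2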
T6 sequence (P05979 whole entry): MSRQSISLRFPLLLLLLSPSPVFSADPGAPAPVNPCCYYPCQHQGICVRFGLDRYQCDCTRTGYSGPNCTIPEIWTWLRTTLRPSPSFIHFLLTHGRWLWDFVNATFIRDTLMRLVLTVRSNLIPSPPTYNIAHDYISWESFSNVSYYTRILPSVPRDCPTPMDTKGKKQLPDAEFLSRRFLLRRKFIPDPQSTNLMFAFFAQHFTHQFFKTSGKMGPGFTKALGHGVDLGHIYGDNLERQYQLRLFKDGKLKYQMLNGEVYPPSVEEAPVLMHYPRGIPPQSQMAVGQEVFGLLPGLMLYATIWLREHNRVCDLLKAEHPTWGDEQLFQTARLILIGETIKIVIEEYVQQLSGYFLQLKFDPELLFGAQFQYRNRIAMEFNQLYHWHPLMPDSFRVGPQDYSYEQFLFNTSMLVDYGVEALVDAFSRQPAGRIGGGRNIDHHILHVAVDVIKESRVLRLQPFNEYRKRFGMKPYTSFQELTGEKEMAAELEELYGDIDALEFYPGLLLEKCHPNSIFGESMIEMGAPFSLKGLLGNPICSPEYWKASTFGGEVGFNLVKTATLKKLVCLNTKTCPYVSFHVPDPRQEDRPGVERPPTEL
Description: Inhibition of ovine recombinant COX1 assessed as decrease in formation of PGE2 using arachidonic acid as substrate preincubated for 10 mins followed by substrate addition measured after 45 mins by LC-MS analysis

IC50 ([1]; read-out: IC50) | Activity [2] | IC50 ([3]; read-out: IC50) | Activity [4] | IC50 ([5]; read-out: IC50) | IC50 [1] | IC50 [3] | IC50 [6] | IC50 ([5]; sf21) | SMILES
35.6 µM | 41.2% | > 40 µM | 81.7% | > 40 µM | – | – | – | – | CC(=O)O[C@@H]1CC[C@@]2(C)[C@@H](CC[C@]3(C)[C@@H]2C(=O)C=C2[C@@H]4[C@@H](C)[C@H](C)CC[C@]4(C)CC[C@]23C)[C@@]1(C)C(=O)O [AKBA]
– | 100% | – | 100% | – | Not Active | Not Active | – | – | CC1(C)CC[C@]2(C(=O)O)CC[C@]3(C)C(=CC[C@@H]4[C@@]5(C)CC[C@H](O)C(C)(C)[C@@H]5CC[C@]43C)[C@@H]2C1 [OLEANOLIC_ACID]
> 40 µM | 86% | – | 100% | – | – | Not Active | Not Active | Not Active | CC1(C)CC[C@]2(C(=O)O)CC[C@]3(C)C(=CC[C@@H]4[C@@]5(C)CC[C@H](O)[C@@](C)(C(=O)O)[C@@H]5CC[C@]43C)[C@@H]2C1
– | 45% | > 40 µM | 70.2% | – | – | – | Not Active | Not Active | C[C@H]1[C@H](C)CC[C@]2(CO)CC[C@]3(C)C(=CC[C@@H]4[C@@]5(C)CC[C@H](O)C(C)(C)[C@@H]5CC[C@]43C)[C@H]12 [UVAOL]
> 40 µM | 64% | > 40 µM | 63.6% | > 40 µM | – | – | – | – | C[C@H]1[C@H](C)CC[C@]2(C(=O)O)CC[C@]3(C)C(=CC[C@@H]4[C@@]5(C)CC[C@H](O)C(C)(C)[C@@H]5CC[C@]43C)[C@H]12 [URSOLIC ACID]
28.3 µM | 31.9% | – | 100% | > 40 µM | – | Not Active | – | – | C[C@H]1[C@H](C)CC[C@]2(C)CC[C@]3(C)C(=CC(=O)[C@@H]4[C@@]5(C)CC[C@@H](O)[C@](C)(C(=O)O)[C@@H]5CC[C@]43C)[C@H]12 [11-KETO BOSWELLIC ACID]
30.6 µM | 29.8% | – | 100% | – | – | Not Active | Not Active | Not Active | CC1(C)CC[C@]2(C)CC[C@]3(C)C(=CC[C@@H]4[C@@]5(C)CC[C@H](O)[C@](C)(CO)[C@@H]5CC[C@]43C)[C@@H]2C1
– | – | – | 31.4% | – | – | – | – | – | CC(Cc1ccc(O)c(O)c1)C(C)Cc1ccc(O)c(O)c1 (centres undefined)
> 40 µM | 69.5% | 12.2 µM | 24.9% | > 40 µM | – | – | – | – | CC(=O)O[C@@H]1CC[C@@]2(C)[C@@H](CC[C@]3(C)[C@@H]2CC=C2[C@@H]4[C@@H](C)[C@H](C)CC[C@]4(C)CC[C@]23C)[C@@]1(C)C(=O)O
– | 100% | – | 100% | – | Not Active | Not Active | – | Not Active | CC1(C)CC[C@]2(C)CC[C@]3(C)C(=CC[C@@H]4[C@@]5(C)CCC(=O)C(C)(C)[C@@H]5CC[C@]43C)[C@@H]2C1
> 40 µM | 93.1% | – | 100% | > 40 µM | – | Not Active | – | – | CC(=O)O[C@@H]1CC[C@@]2(C)[C@@H](CC[C@]3(C)[C@@H]2CC=C2[C@@H]4CC(C)(C)CC[C@]4(C)CC[C@]23C)[C@@]1(C)C(=O)O
> 40 µM | 61.9% | – | 100% | > 40 µM | – | Not Active | – | – | C[C@H]1[C@H](C)CC[C@]2(C(=O)O)CC[C@]3(C)C(=CC[C@@H]4[C@@]5(C)C[C@@H](O)[C@H](O)[C@@](C)(CO)[C@@H]5CC[C@]43C)[C@H]12 [ASIATIC ACID]
> 40 µM | 53.4% | – | 100% | > 40 µM | – | Not Active | – | – | C[C@H]1[C@H](C)CC[C@]2(C)CC[C@]3(C)C(=CC[C@@H]4[C@@]5(C)CC[C@@H](O)[C@](C)(C(=O)O)[C@@H]5CC[C@]43C)[C@H]12 [BOSWELLIC ACID]
– | 48.7% | – | 100% | > 40 µM | – | Not Active | – | – | CC1(C)CC[C@]2(C)CC[C@]3(C)C(=CC[C@@H]4[C@@]5(C)CC[C@@H](O)[C@](C)(C(=O)O)[C@@H]5CC[C@]43C)[C@@H]2C1
– | 47.7% | – | 100% | > 40 µM | – | Not Active | – | – | CC1(C)CC[C@]2(C(=O)O)CC[C@]3(C)C(=CC[C@@H]4[C@@]5(C)C[C@@H](O)[C@H](O)[C@@](C)(CO)[C@@H]5CC[C@]43C)[C@@H]2C1 [ARJUNOLIC ACID]
> 40 µM | 66.7% | – | 100% | > 40 µM | – | Not Active | – | – | C[C@H]1[C@H](C)CC[C@]2(C(=O)O)CC[C@]3(C)C(=CC[C@@H]4[C@@]5(C)C[C@@H](O)[C@H](O)C(C)(C)[C@@H]5CC[C@]43C)[C@H]12 [COROSOLIC ACID]

SMILES | IC50 ([1]; read-out: IC50) | Activity [2] | IC50 ([3]; read-out: IC50) | Activity [4] | IC50 ([5]; read-out: IC50) | IC50 [1] | IC50 [3] | IC50 [6] | IC50 ([5]; sf21)
CC1(C)CC[C@]2(C(=O)O)CC[C@]3(C)C(=CC[C@@H]4[C@@]5(C)C[C@@H](O)[C@H](O)C(C)(C)[C@@H]5CC[C@]43C)[C@@H]2C1 [MASLINIC ACID] | > 40 µM | 62.9% | – | 100% | > 40 µM | – | Not Active | – | –
CC1(C)[C@@H](O)CC[C@]2(C)[C@H]3CC=C4[C@@H]5C[C@@](C)(C(=O)O)CC[C@]5(C)CC[C@@]4(C)[C@]3(C)CC[C@@H]12 | – | 49% | – | 100% | > 40 µM | – | Not Active | – | –
